Test system: HIV-IIIb
Assay: Test A: Antiviral Assays in MT4 Cells
Format: cell-based
Settings: MT-4 cells infected with HIV-IIIb, 5 days incubation, CellTiter-Glo readout
Protocol: The antiviral properties of a compound disclosed herein may be determined using Test A described below.
Test A: Antiviral Assays in MT4 Cells
For the antiviral assay utilizing MT-4 cells, 0.4 μL of […] test concentration of 3-fold serially diluted compound in DMSO was added to 40 μL of cell growth medium (RPMI 1640, 10% FBS, 1% penicillin/Streptomycin, 1% L-Glutamine, 1% HEPES) in each well of 384-well assay plates (10 concentrations) in quadruplicate.
1 mL aliquots of 2×10e6 MT-4 cells are pre-infected for 1 and 3 hrs respectively, @ 37° C. with 25 μL (MT4) or of either cell growth medium (mock-infected) or a fresh 1:250 dilution of an HIV-IIIb concentrated ABI stock (0.004 m.o.i. for MT4 cells). Infected and uninfected cells are diluted in cell growth medium and 35 μL of 2000 (for MT4) cells is added to each well of the assay plates.
Assay plates were then incubated in a 37° C. incubator. After 5 days of incubation, 25 μl of 2× concentrated CellTiter-Glo™ Reagent (catalog # G7573, Promega Biosciences, Inc., Madison, Wis.) was added to each well of the assay plate. Cell lysis was carried out by incubating at room temperature for 2-3 min and then chemiluminescence was read using the Envision reader (PerkinElmer).

[1] = Human immunodeficiency virus 1, IIIB, MT4, 120 h, Table I
[2] = Human immunodeficiency virus 1, IIIB, MT4, 120 h, Table II

| EC50 [2] | EC50 (Table II) | SMILES | further results |
| --- | --- | --- | --- |
|  |  | Cc1cc2ccc(C#CC(C)(O)c3cccnc3)cc2c(-c2ccc(Cl)cc2)c1[C@H](OC(C)(C)C)C(=O)O (stereo partly drawn) [Example 11, (2S)-2-tert-Butoxy-2-(1-(4-chlorophenyl)-7-(3-hydroxy-3-(pyridin-3-yl)but-1-ynyl)-3-methylnaphthalen-2-yl)acetic acid] | EC50 [1]: 0.024 µM |
| 0.0592 µM |  | COc1ncc(-c2ccc3c(-c4ccc5c6c(ccnc46)CCO5)c([C@H](OC(C)(C)C)C(=O)O)c(C)cc3c2)c(O)n1 (atropisomer, axis not shown) [Example 47] |  |
|  | 4.45 µM | Cc1cc2cc(-c3cnc(-c4ccccc4)nc3)ccc2c(-c2ccc3c4c(ccnc24)CCO3)c1[C@H](OC(C)(C)C)C(=O)O (atropisomer, axis not shown) [Example 37] |  |
| 0.0523 µM |  | Cc1cc2c3c(ccc2c(-c2ccc4c5c(ccnc25)CCO4)c1[C@H](OC(C)(C)C)C(=O)O)COC3 (atropisomer, axis not shown) [Example 67] |  |
|  | 0.0556 µM | Cc1cc2cc(-c3ccc4c(cnn4C)c3)ccc2c(-c2ccc3c4c(ccnc24)CCO3)c1[C@H](OC(C)(C)C)C(=O)O (atropisomer, axis not shown) [Example 44] |  |
|  |  | CCCC(C)(C)O[C@H](C(=O)O)c1c(C)cc2ccccc2c1-c1ccc2c3c(ccnc13)CCO2 (atropisomer, axis not shown) [Example 29, (S)-2-((R)-1-(2,3-Dihydropyrano[4,3,2-de]quinolin-7-yl)-3-methylnaphthalen-2-yl)-2-(2-methylpentan-2-yloxy)acetic acid] | EC50 [1]: 0.084 µM |
|  | 3.37 µM | Cc1cc2c(C)c(-c3cncnc3)ccc2c(-c2ccc3c4c(ccnc24)CCO3)c1[C@H](OC(C)(C)C)C(=O)O (atropisomer, axis not shown) [Example 81] |  |
|  | 0.0452 µM | Cc1cc2cc(-c3cnc(-c4cncnc4)nc3)ccc2c(-c2ccc3c4c(ccnc24)CCO3)c1[C@H](OC(C)(C)C)C(=O)O (atropisomer, axis not shown) [Example 38] |  |
|  | 9.91 µM | CC(C)(C)O[C@H](C(=O)O)c1c2c(c3ccccc3c1-c1ccc3c4c(ccnc14)CCO3)OCC2 (atropisomer, axis not shown) [Example 79] |  |
|  | 0.043 µM | Cc1cc2ccccc2c(-c2ccc3c4c(ccnc24)CCO3)c1[C@H](OC(C)(C)CCF)C(=O)O (atropisomer, axis not shown) [Example 97] |  |
| 0.0405 µM |  | Cc1cc2ccccc2c(-c2ccc3c4c(ccnc24)CCO3)c1[C@H](OC(C)(C)CCl)C(=O)O (atropisomer, axis not shown) [Example 99] |  |
|  | 8.68 µM | Cc1cc2cc(-c3cnc(-c4cncnc4)nc3)ccc2c(-c2ccc3c4c(ccnc24)CCO3)c1[C@H](OC(C)(C)C)C(=O)O (atropisomer, axis not shown) [Example 39] |  |
| 0.0432 µM |  | COc1c(C)c([C@H](OC(C)(C)C)C(=O)O)c(-c2ccc3c4c(ccnc24)CCO3)c2ccccc12 (atropisomer, axis not shown) [Example 82] |  |
|  |  | Cc1cc2ccc(C#CC(C)(O)c3ccc(F)cc3)cc2c(-c2ccc(Cl)cc2)c1[C@H](OC(C)(C)C)C(=O)O (stereo partly drawn) [Example 8, (2S)-2-tert-butoxy-2-(1-(4-chlorophenyl)-7-(3-(4-fluorophenyl)-3-hydroxybut-1-ynyl)-3-methylnaphthalen-2-yl)acetic acid] | EC50 [1]: 0.12 µM |
| 0.161 µM |  | Cc1cc2ccccc2c(-c2ccc3c4c(ccnc24)CCO3)c1C(OC(C)(C)CCl)C(=O)O (stereo not shown) [Example 100] |  |
| 0.218 µM |  | CC(=O)Nc1c(C)c([C@H](OC(C)(C)C)C(=O)O)c(-c2ccc3c4c(ccnc24)CCO3)c2ccccc12 (atropisomer, axis not shown) [Example 89] |  |
| 0.0205 µM |  | Cc1cc2cc(-c3cnc(N4CCCC4)nc3)ccc2c(-c2ccc3c4c(ccnc24)CCO3)c1[C@H](OC(C)(C)C)C(=O)O (atropisomer, axis not shown) [Example 51] |  |
| 3.49 µM |  | Cc1cc2ccc(-c3cccc(-c4ccc5c(cnn5C)c4)c3)cc2c(-c2ccc(Cl)cc2)c1[C@H](OC(C)(C)C)C(=O)O [Example 88] |  |
| 0.0149 µM |  | Cc1c([C@H](OC(C)(C)C)C(=O)O)c(-c2ccc3c4c(ccnc24)CCO3)c2ccccc2c1O (atropisomer, axis not shown) [Example 83] |  |
|  | 2.94 µM | Cc1cc2cccc(F)c2c(-c2ccc3c4c(ccnc24)CCO3)c1[C@H](OC(C)(C)C)C(=O)O (atropisomer, axis not shown) [Example 68] |  |

| EC50 [2] | EC50 (Table II) | SMILES | further results |
| --- | --- | --- | --- |
| 0.0451 µM |  | CCOc1ncc(-c2ccc3c(-c4ccc5c6c(ccnc46)CCO5)c([C@H](OC(C)(C)C)C(=O)O)c(C)cc3c2)c(OCC)n1 (atropisomer, axis not shown) [Example 50] |  |
|  | 10 µM | Cc1cc2cc(-c3cncnc3C)ccc2c(-c2ccc3c4c(ccnc24)CCO3)c1[C@H](OC(C)(C)C)C(=O)O (atropisomer, axis not shown) [Example 57] |  |
|  |  | Cc1ccc2cc(C)c([C@H](OC(C)(C)C)C(=O)O)c(-c3ccc4c5c(ccnc35)CCO4)c2c1 (atropisomer, axis not shown) [Example 15, (S)-2-tert-Butoxy-2-((R)-1-(2,3-dihydropyrano[4,3,2-de]quinolin-7-yl)-3,7-dimethylnaphthalen-2-yl)acetic acid] | EC50 [1]: 0.034 µM |
|  | 0.117 µM | CC(C)(C)O[C@H](C(=O)O)c1c(-c2ccc3c4c(ccnc24)CCO3)c2ccccc2c2occc12 (atropisomer, axis not shown) [Example 76] |  |
| 0.018 µM |  | Cc1cc2ccccc2c(-c2ccc3c4c(ccnc24)CCO3)c1[C@H](OC(C)(C)CF)C(=O)O (atropisomer, axis not shown) [Example 102] |  |
| 0.0138 µM |  | COc1ncc(-c2ccc3c(-c4ccc5c6c(ccnc46)CCO5)c([C@H](OC(C)(C)C)C(=O)O)c(C)cc3c2)c(OC)n1 (atropisomer, axis not shown) [Example 49] |  |
|  |  | Cc1ccc2c(-c3ccc4c5c(ccnc35)CCO4)c([C@H](OC(C)(C)C)C(=O)O)c(C)cc2c1 (atropisomer, axis not shown) [Example 16, (S)-2-tert-butoxy-2-((S)-1-(2,3-dihydropyrano[4,3,2-de]quinolin-7-yl)-3,6-dimethylnaphthalen-2-yl)acetic acid] | EC50 [1]: 1.74 µM |
| 0.00792 µM |  | Cc1c([C@H](OC(C)(C)C)C(=O)O)c(-c2ccc3c4c(ccnc24)CCO3)c2ccccc2c1N (atropisomer, axis not shown) [Example 93] |  |
|  | 0.542 µM | Cc1cc2cc(-c3ccc(-c4cncnc4)cc3)ccc2c(-c2ccc3c4c(ccnc24)CCO3)c1[C@H](OC(C)(C)C)C(=O)O (atropisomer, axis not shown) [Example 40] |  |
|  |  | CCOCC(C)(C)O[C@H](C(=O)O)c1c(C)cc2ccccc2c1-c1ccc2c3c(ccnc13)CCO2 (atropisomer, axis not shown) [Example 28, (2S)-2-((S)-1-(2,3-Dihydropyrano[4,3,2-de]quinolin-7-yl)-3-methylnaphthalen-2-yl)-2-(1-ethoxy-2-methylpropan-2-yloxy)acetic acid] | EC50 (Table I): 1.23 µM |
| 0.0116 µM |  | Cc1cc2c(C(F)F)c(C)ccc2c(-c2ccc3c4c(ccnc24)CCO3)c1[C@H](OC(C)(C)C)C(=O)O (atropisomer, axis not shown) [Example 70] |  |
| 0.0117 µM |  | Cc1cc2c(N)cccc2c(-c2ccc3c4c(ccnc24)CCO3)c1[C@H](OC(C)(C)C)C(=O)O (atropisomer, axis not shown) [Example 91] |  |
|  | 1.31 µM | Cc1c([C@H](OC(C)(C)C)C(=O)O)c(-c2ccc3c4c(ccnc24)CCO3)c2ccccc2c1C(F)F (atropisomer, axis not shown) [Example 87] |  |
|  | 0.0211 µM | Cc1cc2c(C)c(-c3cncnc3)ccc2c(-c2ccc3c4c(ccnc24)CCO3)c1[C@H](OC(C)(C)C)C(=O)O (atropisomer, axis not shown) [Example 80] |  |
|  |  | Cc1cc2ccc(C#CC(C)(O)c3ccncc3)cc2c(-c2ccc(Cl)cc2)c1[C@H](OC(C)(C)C)C(=O)O (stereo partly drawn) [Example 12, (2S)-2-tert-Butoxy-2-(1-(4-chlorophenyl)-7-(3-hydroxy-3-(pyridin-4-yl)but-1-ynyl)-3-methylnaphthalen-2-yl)acetic acid] | EC50 [1]: 0.032 µM |
|  | 0.0409 µM | Cc1cc2cc(-c3ccc(-c4cncnc4)cc3)ccc2c(-c2ccc3c4c(ccnc24)CCO3)c1[C@H](OC(C)(C)C)C(=O)O (atropisomer, axis not shown) [Example 41] |  |
|  | 7.76 µM | Cc1cc2cc(-c3c(C)ncnc3C)ccc2c(-c2ccc3c4c(ccnc24)CCO3)c1[C@H](OC(C)(C)C)C(=O)O (atropisomer, axis not shown) [Example 58] |  |
| 0.0121 µM |  | Cc1ccc2c(-c3ccc4c5c(ccnc35)CCO4)c(C(OC(C)(C)CF)C(=O)O)c(C)cc2c1 (stereo not shown) [Example 65] |  |
|  |  | CCOc1c(C#N)ccc2c(-c3ccc4c5c(ccnc35)CCO4)c([C@H](OC(C)(C)C)C(=O)O)c(C)cc12 (atropisomer, axis not shown) [Example 22, (S)-2-tert-Butoxy-2-((R)-6-cyano-1-(2,3-dihydropyrano[4,3,2-de]quinolin-7-yl)-5-ethoxy-3-methylnaphthalen-2-yl)acetic acid] | EC50 [1]: 0.014 µM |
|  | 0.0458 µM | CC(C)(C)O[C@H](C(=O)O)c1c2c(c3ccccc3c1-c1ccc3c4c(ccnc14)CCO3)OCC2 (atropisomer, axis not shown) [Example 78] |  |
